Assays:
Wnt/β-catenin signaling [1] = test: Axin2 expression by qPCR in hCMEC/D3 cerebral microvascular endothelial cells; assay type: cell-based, human; settings: serum free medium, 24 h
Protocol: The expression level of Axin2, a specific target of Wnt/β-catenin signaling, was measured by qPCR. The results represented in the histograms are shown as the means±SE and are the average of 3 independent experiments. One-way ANOVA with post hoc Tukey-Kramer honest significant difference test. **, p<0.01.
Studies in past ten years have established that the Wnt/β-catenin pathway is a key pathway required not only for BBB formation but also for BBB integrity and function. Moreover, BBB breakdown following middle cerebral artery occlusion can be potently rescued in mice in which Wnt/β-catenin is specifically activated in brain endothelial cells. On the other hand, dysregulation of Wnt/β-catenin may limit remyelination of white matter lesions (WMLs) and render the BBB leaky.

Wnt/β-catenin signaling [2] = test: Total cellular β-catenin level by Western blotting in neuronal N2a cells; assay type: cell-based; settings: 24 h, Western blotting normalized to actin
Protocol: (A) Compound 1039 activates Wnt/β-catenin signaling in HEK293 cells. HEK293 cells were transfected with Super8XTOPFlash and 8-galactosidase vectors along with Wnt3A or control vector. After 24 h incubation, cells were treated with 1039 at the indicated concentrations for 24 h. The luciferase activity was then measured and normalized to the activity of the 8-galactosidase. All the values are the average of triplicate determinations with the SD values indicated by error bars. This experiment is a representative of 3 such experiments performed with similar data. (B, C) N2a cells were treated with Compound 1039 at the indicated concentrations for 24 h. (B) The levels of total cellular β-catenin were examined by Western blotting. (C) The intensity of the β-catenin bands was quantified and normalized to the corresponding signal for actin. The results represented in the histograms are shown as the mean±SD and are the average of 3 independent experiments.
Wnt/β-catenin signaling plays a critical role in neuronal survival, neurogenesis, synaptogenesis, neuronal plasticity and synaptic plasticity.

| Compound | activation of Wnt/β-catenin signaling (Axin2 expression, qPCR) (Wnt/β-catenin signaling [1]) | β-catenin level (Wnt/β-catenin signaling [2]) |
| --- | --- | --- |
| Nc1ccccc1NC(=O)c1ccc(C(=O)NCC2CCN2C2CCCC2)cn1 (centres unmarked) [Compound 1015] | able to activate Wnt/β-catenin signaling |  |
| Nc1ccccc1NC(=O)c1ccc(C(=O)NCC2CCCN2CCc2ccccc2)cn1 (centres unmarked) [Compound 1039] |  | enhances β-catenin level in a dose dependent manner |
